# Results published in patent publication US20240058268A1, “METHODS OF TREATING SKIN DISORDERS” (priority 2021, published 2024).
# Tested on: acne papule biopsies of subjects with moderate inflammatory acne of the back
# Assay: Large scale gene expression profiling of skin biopsies (Affymetrix U133 Plus 2.0)
# Format: in vivo, human
# Method: Subjects with moderate inflammatory acne of the back were treated with a 0.005% trifarotene or vehicle cream on dedicated back areas for 27 days, and 4 biopsies were collected on each subject (non-involved skin, acne papule, Trifarotene and vehicle treated site). Large scale gene expression profiling of the biopsies was performed using Affymetrix technology, and treatment specific gene expression profiles were generated using statistical modeling. Clinical investigations were conducted in accordance with the Declaration of Helsinki principles, and the ICH Guideline for Good Clinical Practice. The clinical study received approval from the ethics committee of Brest, France (reference CPP Quest 6-755). This was a post-hoc analysis of data collected from 9 patients aged 18-35 with acne vulgaris (EUDRACT No. 2012-001943-36). In the 4-week open-label clinical study, subjects received once-daily applications of trifarotene 0.005% cream and vehicle cream on the back. Each patient had four biopsies performed, 1 from skin without visible acne lesion (non-involved skin) and three at the site of acne papule, with the following timing: one prior to treatment (day 0), one after vehicle treatment (day 27), and one after trifarotene treatment (day 27). Aubert et al, Br J Dermatol., 2018 August; 179(2):442-456. Samples were collected for large-scale gene expression profiling. Subjects provided written informed consent prior to biopsies. Subjects with moderate inflammatory acne on the back at the screening visit, defined by scores of between 2 and 4 for the whole back, with at least one area scored at 2 and a maximum of three nodules using the ECLA (Acne Lesion Score Scale) scale, were included in the study. Each subject had at least 2 papules 48 hours old, one on each half of the back. Subjects were excluded if they had active skin disease or inflammation other than acne, underlying known conditions which could interfere with study results, history of allergy to local anesthetics and/or topical antiseptics, history of bleeding disorder, or pregnancy/lactation (females). Predefined washout periods were mandated for acne treatments, immunosuppressants, immunomodulators, systemic corticosteroids, and isotretinoin. Study personnel applied treatment to patients' backs with trifarotene cream (right side) or vehicle (left side) once daily for 28 days excluding weekends (n=19 applications). Biopsies of nonlesional areas of trifarotene- and vehicle-treated skin were made under local anaesthesia at day 27 as shown in FIG. 1. Biopsies were stored in RNAlater TissueProtect Tubes (Qiagen, Les Ulis, France). Bioinformatics Analysis: Data analysis was performed using Array Studio software (Omicsoft Corporation, Cary, NC, USA). Affymetrix U133 Plus 2.0 chips (GeneChipTM, Santa Clara, CA, USA) were normalized using the multi-array average (RMA) method (See […], et al. Exploration, normalization, and summaries of high density oligonucleotide array probe level data. Biostatistics, 2003; 4:249-64.) Low expression probe-sets were filtered. Only Affymetrix identifiers with expression ≥2^6 in at least 5 samples in one condition were selected for further statistical analysis, resulting in data for 36245 out of the 54675 probe-sets present on the HG U133 Plus 2.0 array. Mean expression levels were obtained by calculating the geometric means of the RMA-normalized data. A linear model was fitted to the normalized data, and statistical testing of the comparisons of interest were performed using a moderated t-test. Paired-test was used when applicable. P values were adjusted for multiple testing using the Benjamini-Hochberg false discovery rate (FDR) method (See e.g., Benjamini Y, et al., Controlling the false discovery rate in behavior genetics research. Behav Brain Res, 2001; 125:279-84). Candidate differentially expressed genes were selected using a combination of fold-change and […]; genes with absolute fold change>2 and FDA<0.05 were considered as candidate differentially expressed genes. […]
# [1] = lesional skin after 0.005% cream (day 27) vs before treatment
structure (smiles),measurement,setting,value
"CC(C)(C)c1cc(-c2cc(-c3ccc(C(=O)O)cc3)ccc2OCCO)ccc1N1CCCC1 [Trifarotene, 3″-tert-Butyl-4′-(2-hydroxy-ethoxy)-4″-pyrrolidin-1-yl-[1,1′,3′,1″ ]terphenyl-4-carboxylic acid]",number of genes upregulated among the 67 genes regulated,"LINC01224, INA, GABRA4, PXMP4",four
same,number of genes uniquely downregulated (not in spontaneously resolving signature),"absolute fold change>2, genes of inflammatory cell infiltration and extracellular matrix reorganization",67 genes
same,"number of genes in common between acne lesion profile and trifarotene-treated lesion profile, all reversed",acne signature vs trifarotene signature,354 genes
same,Fold Change R3 vs L1: ADAM12 (226777_at),[1],−3.84
same,Fold Change R3 vs L1: ADAMDEC1 (206134_at),[1],−6.29
same,Fold Change R3 vs L1: APELA (1559280_a_at),[1],−2.70
same,Fold Change R3 vs L1: ARHGAP9 (224451_x_at),[1],−2.14
same,Fold Change R3 vs L1: BCAT1 (214452_at),[1],−3.66
same,Fold Change R3 vs L1: BIRC3 (210538_s_at),[1],−2.23
same,Fold Change R3 vs L1: CBLN2 (242301_at),[1],−2.61
same,Fold Change R3 vs L1: CCDC71L (229521_at),[1],−2.26
same,Fold Change R3 vs L1: CCNA1 (205899_at),[1],−3.55
same,Fold Change R3 vs L1: CD37 (204192_at),[1],−2.13
same,Fold Change R3 vs L1: CD69 (209795_at),[1],−2.10
same,Fold Change R3 vs L1: CD80 (1554519_at),[1],−4.03
same,Fold Change R3 vs L1: CD84 (230391_at),[1],−2.57
same,Fold Change R3 vs L1: CLEC4A (221724_s_at),[1],−2.32
same,Fold Change R3 vs L1: CTLA4 (236341_at),[1],−2.54
same,Fold Change R3 vs L1: CYTH4 (219183_s_at),[1],−2.36
same,Fold Change R3 vs L1: DMXL2 (215761_at),[1],−2.35
same,Fold Change R3 vs L1: EVI2B (211742_s_at),[1],−2.35
same,Fold Change R3 vs L1: FERMT3 (223303_at),[1],−2.12
same,Fold Change R3 vs L1: FNDC3B (229865_at),[1],−2.35
same,Fold Change R3 vs L1: GABRA4 (208463_at),[1],2.26
same,Fold Change R3 vs L1: GASK1B (219872_at),[1],−2.30
same,Fold Change R3 vs L1: GLIPR1 (204222_s_at),[1],−2.48
same,Fold Change R3 vs L1: GLIPR2 (225604_s_at),[1],−2.24
same,Fold Change R3 vs L1: GLIS3 (229435_at),[1],−3.07
same,Fold Change R3 vs L1: GPRIN3 (1556698_a_at),[1],−2.27
same,Fold Change R3 vs L1: HLA-DPA1 (213537_at),[1],−2.14
same,Fold Change R3 vs L1: HP (206697_s_at),[1],−2.99
same,Fold Change R3 vs L1: IL2RG (204116_at),[1],−2.28
same,Fold Change R3 vs L1: IL18BP (222868_s_at),[1],−2.37
same,Fold Change R3 vs L1: INA (204465_s_at),[1],2.34
same,Fold Change R3 vs L1: IRF8 (204057_at),[1],−2.02
same,Fold Change R3 vs L1: ITGAX (210184_at),[1],−2.85
same,Fold Change R3 vs L1: KLHL6 (1555275_a_at),[1],−3.05
same,Fold Change R3 vs L1: LINC01224 (233142_at),[1],3.51
same,Fold Change R3 vs L1: LOXL2 (202998_s_at),[1],−2.18
same,Fold Change R3 vs L1: LPXN (216250_s_at),[1],−2.25
same,Fold Change R3 vs L1: LY86 (205859_at),[1],−2.18
same,Fold Change R3 vs L1: MMP12 (204580_at),[1],−11.13
same,Fold Change R3 vs L1: MMP13 (205959_at),[1],−4.3
same,Fold Change R3 vs L1: MMP19 (204575_s_at),[1],−2.71
same,Fold Change R3 vs L1: MSR1 (214770_at),[1],−2.45
same,Fold Change R3 vs L1: NCEH1 (225847_at),[1],−2.70
same,Fold Change R3 vs L1: NRP2 (223510_at),[1],−2.46
same,Fold Change R3 vs L1: P2RY8 (229686_at),[1],−2.23
same,Fold Change R3 vs L1: P2RY10 (236280_at),[1],−2.05
same,Fold Change R3 vs L1: PAPSS2 (203060_s_at),[1],−2.60
same,Fold Change R3 vs L1: PARVG (223562_at),[1],−2.23
same,Fold Change R3 vs L1: PTHLH (211756_at),[1],−2.55
same,Fold Change R3 vs L1: PTPN22 (236539_at),[1],−2.27
same,Fold Change R3 vs L1: PTPRO (208121_s_at),[1],−2.26
same,Fold Change R3 vs L1: PXMP4 (238746_at),[1],2.14
same,Fold Change R3 vs L1: RAC2 (207419_s_at),[1],−2.03
same,Fold Change R3 vs L1: RHOH (204951_at),[1],−2.57
same,Fold Change R3 vs L1: SELP (206049_at),[1],−2.10
same,Fold Change R3 vs L1: SELPLG (209879_at),[1],−2.06
same,Fold Change R3 vs L1: SH2B3 (203320_at),[1],−2.26
same,Fold Change R3 vs L1: SIRPB1 (206934_at),[1],−2.45
same,Fold Change R3 vs L1: SLAMF7 (219159_s_at),[1],−2.49
same,Fold Change R3 vs L1: SLC6A14 (219795_at),[1],−2.04
same,Fold Change R3 vs L1: SNAP25 (202508_s_at),[1],−2.40
same,Fold Change R3 vs L1: TRG-AS1 (239237_at),[1],−2.33
same,Fold Change R3 vs L1: TYROBP (204122_at),[1],−2.39
same,Fold Change R3 vs L1: VCAN (215646_s_at),[1],−2.43
same,Fold Change R3 vs L1: XCL1 (206366_x_at),[1],−2.02
